The IC50 is the midpoint of a concentration-inhibition curve.

Like-named read-outs stand apart in the source and are kept apart here.

From US10660967B2, “Curcumin conjugates and methods of use thereof” (priority 2016, dated 2020) come the findings set out here.

The subject of test [1] is PHA-stimulated splenocytes. Briefly: Proliferative response of PHA-stimulated splenocytes (MTT assay). Particulars: PHA 5 μg/ml, 72 hr; compounds at 5 μM (method says 10 μM); ratio of O.D. versus vehicle control. It counts as cell-based. A digest of the protocol: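 Readout was MTT absorbance (570 nm, reference 690 nm) after 72 h culture at 37° C. Splenocytes at 1×10^6 cells/well received test compound (10 μM final) alone or plus PHA 5 μg/ml as T-cell mitogen. Values are OD ratios of compound over vehicle control (stimulation index).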
A general note: Tetrazolium dyes change colour on reduction, which living cells bring about.

Test [2] concerns lipopolysaccharide-stimulated peritoneal macrophages. The test is described as follows: Production of nitric oxide by lipopolysaccharide-stimulated peritoneal macrophages (Greiss reagent). It counts as cell-based. Details: Potency (%): % inhibition of nitric oxide production relative to lipopolysaccharide-stimulated macrophages: concentration or dose not given beside the values. Particulars: LPS-stimulated peritoneal macrophages; for Nitric oxide (nitrite) concentration, μM (average ± SD): 24 h, nitrite by Greiss reagent. A digest of the protocol:
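NO output was quantified as accumulated nitrite, reacting supernatant with Greiss reagent (sulfanilamide/α-naphthylamine) and reading at 532 nm. Beforehand, cells had been incubated 24 h at 37° C. in nitrite-free, 0.1% BSA medium with 0.5–10 ng/ml LPS, with or without catecholamines at […].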

The test system of test [3] is Salmonella typhi ATCC19430. The test is described as follows: Antimicrobial MIC, agar dilution. It counts as cell-based. The note with it: Salmonella enterica, read-out: Minimum inhibitory concentration (MIC).
Test [4] concerns HCT116 (colon) carcinoma cell line. Briefly: Anti-tumor properties, MTT. It counts as cell-based. Particulars: Homo sapiens, HCT-116. A digest of the protocol:
(§1)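 Cells seeded at 10×10^3 per well for 24 h, then exposed to compound in serum-free medium (final up to 100 μM, 0.5% DMSO vehicle) for 72 h in triplicate. Viability by MTT reduction (4 h, SDS solubilised), absorbance 595 nm/ref 620 nm; IC50 from survival curves.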

Test [5] deals with HepG2 (hepatocellular) carcinoma cell line. The test is described as follows: Anti-tumor properties, MTT. It counts as cell-based. Particulars: Homo sapiens. A digest of the protocol: as §1
Test [6] has as its system MCF7 (breast) carcinoma cell line. Briefly: Anti-tumor properties, MTT. Type of test: cell-based. The note with it: Homo sapiens. In short, it runs like this:
as §1

In test [7] the test system is Streptococcus pyogenes ATCC19615. Briefly: Antimicrobial MIC, agar dilution.
Test [8] concerns Pseudomonas aeruginosa ATCC27853. Briefly: Antimicrobial MIC, agar dilution.
Test [9] concerns Candida albicans (local isolate). Briefly: Antimicrobial MIC, agar dilution. The note with it: Candida albicans, read-out: Minimum inhibitory concentration (MIC). A general note: In agar dilution, organisms are placed on agar that contains the substance at set levels.
Where [10] appears, read: ATCC19615, 18 h, read-out: Minimum inhibitory concentration (MIC).
[11] abbreviates: ATCC19615, read-out: Minimum inhibitory concentration (MIC).
[12] abbreviates: ATCC27853, 18 h, read-out: Minimum inhibitory concentration (MIC).
Setting [13] is: ATCC27853, read-out: Minimum inhibitory concentration (MIC).

Regarding `COc1cc(/C=C/C(=O)CC(=O)/C=C/c2ccc(OC(=O)[C@H](N)CCSC)c(OC)c2)ccc1OC(=O)[C@H](N)CCSC.Cl.Cl` [HCl-D-Met-Cur, (2R,2′R)-1,1′-((((1E,6E)-3,5-dioxohepta-1,6-diene-1,7-diyl)bis(2-methoxy-4,1-phenylene))bis(oxy))bis(4-(methylthio)-1-oxobutan-2-aminium) chloride], in test [1], the “Stimulation Index (average ± SD)” value is recorded as 1.01 ± 0.15. Also, the “Potency (%): % inhibition of nitric oxide production relative to lipopolysaccharide-stimulated macrophages” value in test [2] was 49.57%. Further, the “Nitric oxide (nitrite) concentration, μM (average ± SD)” value in [2] was 13.77 ± 0.96 µM. Further, the MIC in test [3] (18 h) stood at 0.25 µg/mL; in test [3], 0.355 µM; in test [7] (setting [10]), 0.25 µg/mL; in [7] (setting [11]), 0.355 µM; in [8] (setting [12]) it was 1 µg/mL; in test [8] (setting [13]) it was 1.42 µM. Further, the figures for the MIC in [9] (18 h) and in test [9] were 1 µg/mL and 1.42 µM, respectively. For the same molecule, the IC50 in [4] (read-out: IC50 (μM) HCT116 (colon)) worked out at 46.7 µM; in test [5] (HepG2, read-out: IC50 (μM) HepG2 (liver)), 43.6 µM; in test [6] (MCF7, read-out: IC50 (μM) MCF7 (breast)), 10.2 µM.

As to `COc1cc(/C=C/C(=O)CC(=O)/C=C/c2ccc(OC(=O)C(C)NC(=O)OCc3ccccc3)c(OC)c2)ccc1OC(=O)C(C)NC(=O)OCc1ccccc1` (racemic) [Cbz-DL-Ala-Cur, ((1E,6E)-3,5-dioxohepta-1,6-diene-1,7-diyl)bis(2-methoxy-4,1-phenylene) bis(2-(((benzyloxy)carbonyl)amino)propanoate)], the “Stimulation Index (average ± SD)” value in [1] is listed as 1.18 ± 0.09. Further, the “Potency (%): % inhibition of nitric oxide production relative to lipopolysaccharide-stimulated macrophages” value in test [2] turned out to be 45.41%. Further, the “Nitric oxide (nitrite) concentration, μM (average ± SD)” value in test [2] is 14.91 ± 0.62 µM. Moreover, the MIC in [3] (18 h) was 0.5 µg/mL; in test [3], 0.642 µM; in test [7] (setting [10]), 0.125 µg/mL; in test [7] (setting [11]), 0.161 µM; in test [8] (setting [12]), 0.25 µg/mL; in test [8] (setting [13]), 0.321 µM. Besides, the MIC worked out at 0.5 µg/mL in test [9] (18 h) and 0.642 µM in [9]. The activity at 100 µM in test [4] (HCT116, 100 μM, 72 h, read-out: Percentage growth of tumor cell lines treated with the tested compounds (±SD)) stood at 92 ± 2.1%; in [5] (HepG2, 100 μM, 72 h, read-out: Percentage growth of tumor cell lines treated with the tested compounds (±SD)), 82.9 ± 4.1%; in test [6] (MCF7, 100 μM, 72 h, read-out: Percentage growth of tumor cell lines treated with the tested compounds (±SD)) it was 62.7 ± 4.7%.
